# Assay results reported in patent publication US20240252552A1, “LIPOTEICHOIC ACID FROM STAPHYLOCOCCUS EPIDERMIDIS AND ITS USE TO MODULATE NEURONAL ACTIVITY VIA PD-1 INHIBITORY SIGNALLING IN NEURONS” (Northwestern University, priority 2023, published 2024).
# “Also recorded” adds a separate entry of the source.
# How the values were obtained:
# PD-1 = PD-1 expression in ex vivo dorsal root ganglion culture (immunofluorescence, qPCR); format: cell-based; details: ex vivo DRG, MMG11 + SELTA, TLR2 blockade
# From the text: FIGS. 5A, 5B, 5C, 5D, and 5E. […] Scale bars=10 μm. (B) Distribution of intensity of PD-1 immunoreactivity in DRG based on the size of individual neurons in control (upper) and SELTA treatment (bottom). […] For all quantification analysis, a two-way ANOVA was used. *P<0.05, **P<0.01, #P<0.05. n=3 to 4 per group.
# SELTA elevated PD-1 expression in primary sensory neurons. The inventor next examined PD-1 expression in the primary afferent neurons following direct exposure to SELTA. The inventor performed an ex vivo dorsal root ganglion (DRG) culture using DRG isolated at the levels of L2 to S1. Following 24-hour co-culture with SELTA, the expression of PD-1 was probed using immunofluorescence followed by confocal microscopy (FIG. 5A). To ascertain the cellular distribution of increased PD-1 expression, ImageJ analyses-based on individual cells were done and presented as the function of PD-1 immunoreactivity intensity to the cell size (FIG. 5B). Quantification was based on cell size-differential average fluorescence intensity (FIG. 5C). […] To further understand the expression of PD-1, immunoreactive intensities were normalized to the neuronal marker Neu-N (FIG. 5D). Changes were largely similar to FIG. 5C. The inventor next sought to examine whether the SELTA receptor TLR2 was involved in the modulation of PD-1 expression by SELTA. […]
# [1] = test system: trigeminal ganglion (TG) neurons; experiment: Real-time Ca2+ imaging (fura-2 AM) of ATP-stimulated TG neuronal cultures; format: cell-based, C57Bl/6 mice; details: TG neurons preincubated with MMG11
# From the text: FIG. 8. […] Analysis with Student's t test, p<0.0001.
# SELTA-induced inhibition of Ca^2+ influx is reversed by neutralizing PD-1. In the transduction of nociceptive signal, Ca^2+ influx through voltage-gated Ca^2+ channels is critical for neurotransmitter release and synaptic transmission (12-14). To investigate whether intracellular Ca^2+ dynamics in the afferents are affected by SELTA (8, 15), the inventor established in vitro trigeminal ganglion (TG) neuronal cultures from adult C57Bl/6 mice and performed real-time Ca^2+ imaging using fura-2 AM (FIG. 8). Cells were pretreated with vehicle or SELTA prior to stimulation with 20 uM ATP. TLR2 specificity of these effects were examined by using MMG11, a TLR2-specific antagonist (10) and PD-1 requirement was examined by pre-incubation with an anti-PD-1 antibody (16).
smiles,measurement,setting,value
CCOC(=O)c1ccc(CC(=O)c2ccc(O)c(O)c2O)o1 [MMG11],effect on SELTA-induced PD-1 mRNA expression (qPCR),PD-1,abrogated the elevation in PD-1 expression
same,effect of TLR2 blockade on SELTA-mediated inhibition of Ca2+ influx,[1],abrogated the SELTA mediated inhibition of Ca^2+ influx; also recorded: reverses SELTA-induced reduction of Ca2+ influx
